From ChEMBL document CHEMBL1138000, “Novel, potent and selective anilinoquinazoline and anilinopyrimidine inhibitors of p38 MAP kinase” (Bioorg Med Chem Lett, 2004)
Values after ≈ are worked out from the molar mass of the structure shown.

Key:
[1] = target: Mitogen-activated protein kinase 14 (Homo sapiens, UniProt Q16539)
Description: Inhibitory concentration against alpha mitogen activated protein kinase p38 activity

[2] = species: Homo sapiens; assay: Concentration required to inhibit TNF-alpha production was determined in human whole blood; format: functional
[3] = target: Epidermal growth factor receptor (Homo sapiens, UniProt P00533); assay: Inhibitory concentration against Epidermal growth factor receptor tyrosine kinase activity
[4] = Clearance after i.v. dosing at 1 mg/kg; format: ADME, organism-based; set-up: dose 1 mg/kg, route intravenous; details: rat, in vivo, iv
[5] = Clearance after oral dosing at 1 mg/kg; format: ADME, organism-based; set-up: dose 1 mg/kg, route oral; details: rat, in vivo, read-out: Clearance
[6] = oral bioavailability after oral dosing at 1 mg/kg; format: ADME, organism-based; details: rat, in vivo, read-out: Bioavailabiility
[7] = Volume of distribution at steady state after i.v. dosing at 1 mg/kg; format: ADME, organism-based; set-up: dose 1 mg/kg, route intravenous; details: rat, in vivo, iv, read-out: Distribution
[8] = oral bioavailability after p.o. dosing at 1 mg/kg; details: rat, in vivo, read-out: Bioavailabiility
[9] = Volume of distribution at steady state after oral dosing at 1 mg/kg; format: ADME, organism-based; set-up: dose 1 mg/kg, route oral; details: rat, in vivo
[10] = Aqueous solubility
[11] = Log D value at pH 7.4; format: physicochemical; details: buffer
[12] = Protein binding was determined in rat plasma; format: ADME, cell-free

Sequence of Epidermal growth factor receptor (P00533 whole entry): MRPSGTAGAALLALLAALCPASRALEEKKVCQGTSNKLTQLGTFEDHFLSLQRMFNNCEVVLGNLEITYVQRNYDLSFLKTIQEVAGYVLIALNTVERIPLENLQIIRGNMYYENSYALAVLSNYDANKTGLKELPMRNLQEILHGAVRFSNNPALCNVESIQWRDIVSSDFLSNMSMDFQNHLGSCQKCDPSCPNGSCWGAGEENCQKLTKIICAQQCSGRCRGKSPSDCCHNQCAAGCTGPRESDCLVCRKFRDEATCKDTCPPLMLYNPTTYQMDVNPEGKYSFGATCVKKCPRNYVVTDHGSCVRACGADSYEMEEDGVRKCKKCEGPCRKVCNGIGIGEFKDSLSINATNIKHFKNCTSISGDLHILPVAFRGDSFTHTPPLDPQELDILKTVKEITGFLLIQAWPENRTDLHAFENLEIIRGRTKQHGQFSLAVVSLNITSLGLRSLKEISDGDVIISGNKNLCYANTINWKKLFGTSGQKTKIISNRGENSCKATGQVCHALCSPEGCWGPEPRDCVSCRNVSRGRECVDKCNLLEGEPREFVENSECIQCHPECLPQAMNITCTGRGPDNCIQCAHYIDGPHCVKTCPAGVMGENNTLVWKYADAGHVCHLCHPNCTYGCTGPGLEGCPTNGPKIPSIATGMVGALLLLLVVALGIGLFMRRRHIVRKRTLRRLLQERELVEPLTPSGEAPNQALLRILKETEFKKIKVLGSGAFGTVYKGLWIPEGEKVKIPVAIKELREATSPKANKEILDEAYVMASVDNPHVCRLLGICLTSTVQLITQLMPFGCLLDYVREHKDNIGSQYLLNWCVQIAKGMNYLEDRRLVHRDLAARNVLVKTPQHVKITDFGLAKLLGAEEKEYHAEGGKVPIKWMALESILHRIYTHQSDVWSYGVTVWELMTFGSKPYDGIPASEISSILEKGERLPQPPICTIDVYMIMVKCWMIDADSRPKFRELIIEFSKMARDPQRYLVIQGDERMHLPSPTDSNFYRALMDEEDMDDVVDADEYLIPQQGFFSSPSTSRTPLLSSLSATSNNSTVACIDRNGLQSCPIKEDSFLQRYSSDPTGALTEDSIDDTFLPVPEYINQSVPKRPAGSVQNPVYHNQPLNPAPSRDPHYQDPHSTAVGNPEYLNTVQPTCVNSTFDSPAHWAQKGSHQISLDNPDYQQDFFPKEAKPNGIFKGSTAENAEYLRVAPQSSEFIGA
Sequence of Mitogen-activated protein kinase 14 (Q16539 whole entry): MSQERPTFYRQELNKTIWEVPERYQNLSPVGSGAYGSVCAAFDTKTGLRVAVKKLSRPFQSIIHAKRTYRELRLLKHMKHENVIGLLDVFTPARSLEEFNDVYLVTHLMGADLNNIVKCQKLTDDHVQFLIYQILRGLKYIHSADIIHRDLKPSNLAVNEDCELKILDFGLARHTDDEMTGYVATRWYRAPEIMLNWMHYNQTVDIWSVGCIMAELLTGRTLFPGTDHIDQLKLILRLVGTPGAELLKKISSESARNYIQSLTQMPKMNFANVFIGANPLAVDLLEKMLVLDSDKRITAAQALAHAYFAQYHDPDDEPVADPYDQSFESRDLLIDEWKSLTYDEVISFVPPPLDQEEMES

Row | Structure (SMILES) | IC50 [1] | IC50 [2] | IC50 [3] | also measured
1 | COc1cc2ncnc(Nc3cccc(NC(=O)c4ccccc4)c3F)c2cc1OC | 690 nM | > 50 µM | 2.8 µM | 
2 | C=CCN(C)c1nccc(Nc2cc(NC(=O)c3ccnc(N4CCOCC4)c3)ccc2C)n1 | 110 nM | > 50 µM |  | 
3 | COc1cc2ncnc(Nc3cc(NC(=O)c4cccc(N5CCOCC5)c4)ccc3C)c2cc1OC | 10 nM | 16 µM | > 33 µM | 
4 | Cc1ccc(NC(=O)c2ccnc(N3CCOCC3)c2)cc1Nc1cc(N2CCCN(C)CC2)ncn1 | 1220 nM | > 50 µM |  | 
5 | COc1cc2ncnc(Nc3cc(NC(=O)c4ccnc(N5CCOCC5)c4)ccc3C)c2cc1OCCN1CCOCC1 | 20 nM | 7.8 µM |  | 
6 | COc1cc2ncnc(Nc3cc(NC(=O)c4ccccc4)ccc3C)c2cc1OC | 70 nM | 21 µM | > 33 µM | 
7 | COc1cc2ncnc(Nc3ccc(Cl)c(NC(=O)c4cccc(N(C)C)c4)c3)c2cc1OC | 1690 nM | > 50 µM | 1 µM | 
8 | COc1cc2ncnc(Nc3cc(NC(=O)c4ccccc4)c(Cl)cc3F)c2cc1OC | 510 nM | > 50 µM |  | 
9 | CCCN1CCC(Oc2nccc(Nc3cc(NC(=O)c4ccnc(N5CCOCC5)c4)ccc3C)n2)CC1 | 50 nM | 0.41 µM |  | 
10 | Cc1ccc(NC(=O)c2ccnc(N3CCOCC3)c2)cc1Nc1ccncn1 | 210 nM | 27 µM |  | 
11 | Cc1ccc(NC(=O)c2ccnc(N3CCOCC3)c2)cc1Nc1ccnc(OC2CCN(C)CC2)n1 | 40 nM | 0.5 µM |  | 
12 | COc1cc2ncnc(Nc3cc(NC(=O)c4ccccc4)ccc3Cl)c2cc1OC | 80 nM | > 50 µM | 11 µM | 
13 | Cc1ccc(NC(=O)c2ccnc(N3CCOCC3)c2)cc1Nc1ccnc(Cl)n1 | 10 nM | 11 µM |  | 
14 | Cc1ccc(NC(=O)c2ccnc(N3CCOCC3)c2)cc1Nc1cc(Cl)ncn1 | 240 nM | > 50 µM |  | 
15 | COc1cc2ncnc(Nc3cc(NC(=O)c4ccccc4)c(F)cc3F)c2cc1OC | 50 nM | > 50 µM | 0.49 µM | 
16 | Cc1ccc(NC(=O)c2ccnc(N3CCOCC3)c2)cc1Nc1ccnc(OCCCN(C)C)n1 | 30 nM | 3.2 µM |  | 
17 | COc1cc2ncnc(Nc3ccc(C)c(NC(=O)c4ccccc4)c3)c2cc1OC | 2090 nM | > 50 µM | 3.2 µM | 
18 | COc1cc2ncnc(Nc3cccc(NC(=O)c4ccccc4)c3)c2cc1OC | 140 nM | > 50 µM | 5.6 µM | 

Row | Structure (SMILES) | IC50 [1] | IC50 [2] | IC50 [3] | also measured
19 | Cc1ccc(NC(=O)c2ccnc(N3CCOCC3)c2)cc1Nc1cc(NCCCN2CCCC2)ncn1 | 450 nM | > 50 µM |  | 
20 | COc1cc2ncnc(Nc3cc(NC(=O)c4cccc(N(C)C)c4)ccc3Cl)c2cc1OC | 40 nM | > 50 µM | 29 µM | 
21 | CSc1nccc(Nc2cc(NC(=O)c3cc(F)cc(N4CCOCC4)c3)ccc2C)n1 | 10 nM | 3.4 µM |  | clearance [4]: 25 mL/min/kg; CL/F [5]: 25 mL/min/kg; bioavailability [6]: 26%; Vd [7]: 0.8 L/kg; bioavailability [8]: 26%; Distribution [9]: 0.8 L/kg
22 | COc1cc2ncnc(Nc3cc(NC(=O)c4ccnc(N5CCOCC5)c4)ccc3C)c2cc1OCCN(C)C | 30 nM | 6.9 µM |  | 
23 | CCN(CC)CCCNc1cc(Nc2cc(NC(=O)c3ccnc(N4CCOCC4)c3)ccc2C)ncn1 | 280 nM | 23 µM |  | 
24 | COc1cc2ncnc(Nc3cc(NC(=O)c4ccnc(N5CCOCC5)c4)ccc3C)c2cc1OCCN1CCCCC1 | 50 nM | 4.6 µM |  | 
25 | Cc1ccc(NC(=O)c2ccnc(N3CCOCC3)c2)cc1Nc1ccnc(NCCCN2CCOCC2)n1 | 90 nM | > 50 µM |  | 
26 | COc1cc2ncnc(Nc3ccc(Cl)c(NC(=O)c4ccccc4)c3)c2cc1OC | 610 nM | > 50 µM | 2.2 µM | 
27 | CCCN1CCC(Oc2nccc(Nc3cc(NC(=O)c4cccc(N5CCOCC5)c4)ccc3C)n2)CC1 | 40 nM | 0.3 µM |  | 
28 | Cc1ccc(NC(=O)c2ccnc(N3CCOCC3)c2)cc1Nc1ccnc(OCC(C)(C)CN(C)C)n1 | 70 nM | 3.7 µM |  | 
29 | COc1cc2ncnc(Nc3cc(NC(=O)c4ccnc(N5CCOCC5)c4)ccc3C)c2cc1OCCN(C(C)C)C(C)C | 50 nM | 3.5 µM |  | solubility [10]: 240 µM (≈ 147 µg/mL); logD [11]: 3.5; Binding [12]: 83%
30 | COc1cc2ncnc(Nc3cc(NC(=O)c4cccc(N(C)C)c4)ccc3C)c2cc1OC | 30 nM | 35 µM | > 33 µM | 
31 | Cc1ccc(NC(=O)c2ccnc(N3CCOCC3)c2)cc1Nc1ccnc(OCC2CCCN(C)C2)n1 (configuration not stated) | 30 nM | 1.1 µM |  | 
32 | COc1cc2ncnc(Nc3cccc(NC(=O)c4cccc(N(C)C)c4)c3)c2cc1OC | 210 nM | > 50 µM | > 33 µM | 
33 | Cc1ccc(NC(=O)c2ccnc(N3CCOCC3)c2)cc1Nc1ccnc(N(C)C2CCN(C)CC2)n1 | 80 nM | 5.3 µM |  | 
34 | Cc1ccc(NC(=O)c2ccnc(N3CCOCC3)c2)cc1Nc1ccnc(NCCCN2CCCC2)n1 | 50 nM | 16 µM |  | 
35 | C[S+]([O-])c1ccc(-c2nc(-c3ccc(F)cc3)c(-c3ccncc3)[nH]2)cc1 (configuration not stated) [SB-203580] |  | 2 µM |  | 
36 | COc1cc2ncnc(Nc3cccc(Cl)c3)c2cc1OC [TYRPHOSTIN AG-1478] | 560 nM | > 50 µM |  | 
